≈ marks a conversion by molar mass, not a printed value.
What was measured:
E. coli (AAC(3)IV) = assay: MIC 50, broth micro-dilution, E. coli expressing AAC(3)IV; assay type: cell-based, Escherichia coli
Experimental: (§1) Plasmid transformation. Approximately 500 ng of the pET-9b(+) (Cat. No. 69432-3, Merck), pAT21-1 (provided by Prof. Dr. Patrice Courvalin, M.D., Pasteur Institute, France; prepared according to Trieu-Cuot et. al, Mol. Gen. Genet. 198(2), 348 (1985)), pBluescript::AAC(6′)-Ie/APH(2″)-Ia (provided by Prof. Dr. Sergei Vakulenko, M.D., University of Notre Dame, Ind., USA; prepared according to S. B. Vakulenko et. al., J. Biol. Chem. 287 (52), 43262 (2012)), pBlue_lpp_aacC3_rrnC and pSET152 (Cat. No. PVT3395, Life Science Market; prepared according to Bierman et al., Gene 116 (1), 43 (1992)) plasmids, encoding APH(3′)-Ia (SEQ ID NO:2), APH(3′)-IIIa (SEQ ID NO:3), AAC(6′)Ie-APH(2″)-Ia (SEQ ID NO:4), AAC(3)-III (SEQ ID NO:1), and AAC(3)-IV (SEQ ID NO:5) respectively, were individually incubated in a vial of competent cells for 15 min on ice. The cells were subsequently heated to 42° C. for 90 s, and cooled on ice for 1 min. After addition of 900 μL LB, the cells were incubated for 1 h at 37° C. and 200 rpm. Cells were plated on LB-agar supplemented with 50 μg/mL KanaA and incubated for 18 h at 37° C. The next day, a single colony was inoculated in 5 mL LB supplemented with 50 μg/mL and grown for 18 h at 37° C. and 200 rpm. A 200 μL sample of each culture was diluted with 200 μL of 40% v/v glycerol in water, and stored at −80° C. The plasmid was purified from the remaining culture using the Plasmid Miniprep kit. Plasmid DNA was investigated by Eurofins Genomics (Germany) to confirm the identity of the aminoglycoside resistance genes.
(§2) 3.1 Against E. coli Strains
(§3) Tested reference compounds. Amikacin sulfate (Cat. No. 01693, Chem-Impex), Gentamicin sulfate (Cat. No. G4918, Sigma Aldrich).
(§4) Microbial strains. E. coli ATCC 25922, E. coli ATCC 25922/pET-9b(+), E. coli ATCC 25922/pAT21-1, E. coli ATCC 25922/pBluescript::AAC(6′)-Ie/APH(2″)-Ia, E. coli ATCC 25922/pBlue_lpp_aacC3_rrnC, E. coli ATCC 25922/pSET152.
(§5) Culture media and equipment. BBL™ Mueller Hinton Broth 2 (Lot. BCBW1143, Cat. No. 70192, Sigma); Kanamycin A (Cat. No. A1493, AppliChem); 96-well deep well plate, 1 mL (Cat. No. 0030506.200, Eppendorf); Plate lids (Cat. No. 0030131.525, Eppendorf); 96-well plate, F-bottom (Cat. No. 781602, Brand; Incubator, Infors Multitron Pro); Laminar flow (Heraeus KS12); UV/VIS meter (Eppendorf BioPhotometer Plus); Platereader (Tecan Sunrise).
(§6) Compound preparation. Compounds were prepared in MH2 media at a concentration of 5 mM and stored at 4° C. For testing, solutions of 128 μM were prepared in MH2. Out of these working solutions, 400 μL was transferred to wells in the first column of 96-well deep well plates. Each compound was transferred in triplicate. Plates were previously filled with 200 μL of MH2 media in all wells except for the wells in the first column. After compound and antibiotic addition, the compounds were serial two-fold diluted by transferring 200 μL from the first to the second column, then from the second to the third column and so on. Finally, 200 μL was removed from the last column.
(§7) Inoculum preparation. Microorganisms used were all revived from 20% glycerol (40% v/v glycerol in water was diluted with MH2) storage at −80° C. by inoculating them in 5 mL MH2. inoculums of E. coli containing a plasmid were selected for by adding 50 μg/mL KanaA. The Inoculums were grown to an optical density (measured by UV/Vis spectroscopy) of 0.6-0.8 at 600 nm. Out of these suspensions, actual inoculums were prepared by diluting them to an optical density (OD) of 0.1 in MH2 media. From these inoculums, 200 μL was transferred to each well, resulting in a final compound concentration range of 64 μM-31.3 nM. All plates were incubated at 900 rpm and 70% rH for 18 h at 37° C.
(§8) MIC determination. After 18 h of growth, 200 μL was transferred to a 96-well F-bottom plate. The optical density was determined by a plate reader at 600 nm, with 10 s shaking before reading. Triplicate measurements were averaged, and a growth curve was plotted in Microsoft Excel. […]

[1] = system: E. coli (AAC(6′)Ie-APH(2″)Ia); assay: MIC 50, broth micro-dilution, E. coli expressing AAC(6′)Ie-APH(2″)Ia; assay type: cell-based, Escherichia coli
Experimental: as §1, §2, §3, §4, §5, §6, §7, §8

[2] = Escherichia coli, ATCC25922, ATCC25922 harboring plasmid encoding AAC(3)IV
[3] = Escherichia coli, ATCC25922, ATCC25922 harboring plasmid encoding AAC(6′)Ie-APH(2″)Ia
[4] = ATCC25922 harboring plasmid encoding AAC(3)IV
[5] = ATCC25922 harboring plasmid encoding AAC(6′)Ie-APH(2″)Ia

| SMILES | MIC50 (E. coli (AAC(3)IV); [2]) | MIC50 [1, 3] | MIC50 (E. coli (AAC(3)IV); [4]) | MIC50 [1, 5] |
| --- | --- | --- | --- | --- |
| N=C(NCCO)NC1[C@@H](O)C(OC2[C@@H](F)[C@H](O[C@H]3OC(CN)[C@@H](O)CC3N)C(N)C[C@H]2NC(=O)[C@@H](O)CCN)O[C@H](CO)[C@H]1O (stereo partly shown) [ABX5029, Tobra-AHB-F-Gua 2-hydroxy-ethyl] | 2 µM (≈ 1.31 µg/mL) | 0.5 to 1 µM (≈ 0.328 to 0.657 µg/mL) |  |  |
| NCC[C@H](O)C(=O)N[C@@H]1CC(N)[C@@H](O[C@H]2OC(CN)[C@@H](O)CC2N)[C@H](F)C1OC1O[C@H](CO)[C@@H](O)C(N)[C@H]1O (stereo partly shown) [ABX5024, Tobra-AHB-F] |  |  | 2 µM (≈ 1.14 µg/mL) | 1 µM (≈ 0.571 µg/mL) |
| N=C(NC[C@H]1CNCCO1)NC1[C@@H](O)C(OC2[C@@H](F)[C@H](O[C@H]3OC(CN)[C@@H](O)CC3N)C(N)C[C@H]2NC(=O)[C@@H](O)CCN)O[C@H](CO)[C@H]1O (stereo partly drawn) [ABX5043, Tobra-AHB-F-Gua (R) morpholin-2-yl methyl] | 1 µM (≈ 0.712 µg/mL) | 0.25 µM (≈ 0.178 µg/mL) |  |  |
| N=C(NCc1ccncc1)NC1[C@@H](O)C(OC2[C@@H](F)[C@H](O[C@H]3OC(CN)[C@@H](O)CC3N)C(N)C[C@H]2NC(=O)[C@@H](O)CCN)O[C@H](CO)[C@H]1O (stereo partly shown) [ABX5048, Tobra-AHB-F-Gua pyridin-4-yl methyl] | 1 to 2 µM (≈ 0.704 to 1.41 µg/mL) | 0.5 µM (≈ 0.352 µg/mL) |  |  |
| NCC[C@H](O)C(=O)N[C@@H]1C[C@H](N)[C@@H](O[C@H]2O[C@H](CN)[C@@H](O)[C@H](O)[C@H]2O)[C@H](O)[C@H]1O[C@H]1O[C@H](CO)[C@@H](O)[C@H](N)[C@H]1O [Amikacin, amikacin, reference compound] | 8 µM (≈ 4.68 µg/mL) | 4 to 8 µM (≈ 2.34 to 4.68 µg/mL) |  |  |
| N=C(NC[C@@H]1CCNC1)NC1[C@@H](O)C(OC2[C@@H](F)[C@H](O[C@H]3OC(CN)[C@@H](O)CC3N)C(N)C[C@H]2NC(=O)[C@@H](O)CCN)O[C@H](CO)[C@H]1O (stereo partly drawn) [ABX5039, Tobra-AHB-F-Gua (R) pyrrolidine-3-ylmethyl] | 1 µM (≈ 0.696 µg/mL) | 0.25 µM (≈ 0.174 µg/mL) |  |  |
| N=C(NCC1CCOC1)NC1[C@@H](O)C(OC2[C@@H](F)[C@H](O[C@H]3OC(CN)[C@@H](O)CC3N)C(N)C[C@H]2NC(=O)[C@@H](O)CCN)O[C@H](CO)[C@H]1O (stereo partly shown) [ABX5051, Tobra-AHB-F-Gua tetrahydrofuran-3-yl methyl] | 2 µM (≈ 1.39 µg/mL) | 0.5 µM (≈ 0.348 µg/mL) |  |  |
| NCCC(O)C(=O)NC1CC(N)C(OC2OC(CN)C(O)C(O)C2N)C(F)C1OC1OC(CO)C(O)C(N)C1O (stereo not shown) [ABX4007, KanaB-AHB-F] |  |  | 4 to 8 µM | 2 to 4 µM |
| C[C@@H](N)CCNC(=N)NC1[C@@H](O)C(OC2[C@@H](F)[C@H](O[C@H]3OC(CN)[C@@H](O)CC3N)C(N)C[C@H]2NC(=O)[C@@H](O)CCN)O[C@H](CO)[C@H]1O (stereo partly drawn) [ABX5047, Tobra-AHB-F-Gua (R) 3-amino-butyl] | 1 to 2 µM (≈ 0.684 to 1.37 µg/mL) | 0.25 µM (≈ 0.171 µg/mL) |  |  |
| N=C(N)NC1[C@@H](O)C(OC2[C@@H](F)[C@H](O[C@H]3OC(CNCCO)[C@@H](O)CC3N)C(N)C[C@H]2NC(=O)[C@@H](O)CCN)O[C@H](CO)[C@H]1O (stereo partly shown) [ABX5045, 6N-2-hydroxy-ethyl-Tobra-AHB-F-Gua] | 2 µM (≈ 1.31 µg/mL) | 0.5 µM (≈ 0.328 µg/mL) |  |  |
| N=C(NC[C@@H]1CCCN1)NC1[C@@H](O)C(OC2[C@@H](F)[C@H](O[C@H]3OC(CN)[C@@H](O)CC3N)C(N)C[C@H]2NC(=O)[C@@H](O)CCN)O[C@H](CO)[C@H]1O (stereo partly drawn) [ABX5026, Tobra-AHB-F-Gua (S) pyrrolidine-2-yl-methyl] | 0.5 µM (≈ 0.348 µg/mL) | 0.25 to 0.5 µM (≈ 0.174 to 0.348 µg/mL) |  |  |
| CNCCNC(=N)NC1[C@@H](O)C(OC2[C@@H](F)[C@H](O[C@H]3OC(CN)[C@@H](O)CC3N)C(N)C[C@H]2NC(=O)[C@@H](O)CCN)O[C@H](CO)[C@H]1O (stereo partly shown) [ABX5038, Tobra-AHB-F-Gua 2-(methylamino)ethyl] | 1 µM (≈ 0.67 µg/mL) | 0.25 µM (≈ 0.167 µg/mL) |  |  |
| N=C(N)NC1[C@@H](O)C(OC2[C@@H](F)[C@H](O[C@H]3OC(CN)[C@@H](O)[C@H](O)C3N)C(N)C[C@H]2NC(=O)[C@@H](O)CCN)O[C@H](CO)[C@H]1O (stereo partly shown) [ABX4006, KanaB-AHB-F-Gua] | 2 µM (≈ 1.26 µg/mL) | 1 µM (≈ 0.629 µg/mL) |  |  |
| N=C(NCC1CCCO1)NC1[C@@H](O)C(OC2[C@@H](F)[C@H](O[C@H]3OC(CN)[C@@H](O)CC3N)C(N)C[C@H]2NC(=O)[C@@H](O)CCN)O[C@H](CO)[C@H]1O (stereo partly shown) [ABX5046, Tobra-AHB-F-Gua tetrahydrofuran-2-yl methyl] | 1 to 2 µM (≈ 0.697 to 1.39 µg/mL) | 0.5 µM (≈ 0.348 µg/mL) |  |  |

Reference: US20220127297A1, “Novel Antibacterial 3"-Derivatives Of 4,6-Disubstituted 2,5-Dideoxystreptamine Aminoglycoside Antibiotics” (AGILeBiotics B.V., priority 2018, published 2022)
